Results reported in US20180327364A1, “MTOR INHIBITORS AND METHODS OF USE THEREOF” (Brandeis University, priority 2015, published 2018).

Assays:
firefly luciferase = test: Luciferase assay in stably transduced luciferase HEK-293T cells; format: cell-based
Protocol: Firefly luciferase and firefly luciferase-eDHFR were cloned into pBABE-puro vector which was a gift from Hartmut Land & Jay Morgenstern & Bob Weinberg (Addgene plasmid #1764). pBABE-puro-luciferase was co-transfected with VSV-G into GP2-293 cells (Retro-X Universal Packaging System, Clonetech, Mountain View, Calif.) with TransIT-2020 (MirusBio) according to TransIT-2020's manufacture's protocol. After 48 h, viral supernatant was harvested, spun down, filtered with a […] syringe filter, and added to HEK-293T supplemented with 8 μg/mL polybrene. After 4 h of infection, the media was replaced with fresh media. 48 h later, media was replaced with media containing 3 μg/mL puromycin. Media was replaced with fresh media containing puromycin every 3-4 days. After 2 weeks of puromycin selection, the cells were grown out from single cell colonies and screened for luciferase expression.
Stably transduced luciferase HEK-293T cells were plated in 96-well plates 24 h prior to treatment with 100 μM of Cbz-B3A, amine-B3A, acetyl-B3A, and Cbz-acetyl. After 4 h, cells were harvested and measured with Luciferase Assay System with Reporter Lysis Buffer from Promega according to the manufacturer's protocol. Before the addition of luciferin, protein concentration was measured by removing 2 μl of lysate from each well and adding it to diluted Bio-Rad Protein Assay Dye Reagent Concentrate, and the absorbance was measured at OD595. The protein concentration was used to normalize luciferase signal. For translation assays, cells were pretreated for 15 min with 100 μg/mL cycloheximide or 6 μM bortezomib. For the recombinant luciferase assay, Quantilum Recombinant Luciferase (Promega) was diluted 1:250,000 in reporter lysis buffer with 1 mg/mL BSA then mixed 1:1 with 200 μM compound in the same buffer for a final dilution of 1:500,000 and 100 μM compound in 20 μL. This was incubated for 10 min at room temperature then measured with Luciferase Assay System with Reporter Lysis Buffer from Promega according to the manufacturer's protocol.

[1] = tested on: protein translation in HEK-293T cells; test: 35S-methionine/cysteine incorporation translation assay; format: cell-based; settings: Homo sapiens, HEK-293T, 4 h treatment then 1 h labeling
Protocol: 80,000 cells/well of HEK-293T cells were plated into 24 well plates 24 h before the assay. Cells were treated with indicated concentration of compound for 4 h. After 4 h, the media was removed and replaced with DMEM without methionine and cysteine (Lifetechnologies) supplemented with 0.2 mCi/mL EXPRESS [^35S] protein labeling mix (PerkinElmer), 10% dialyzed FBS (Pierce), 1× glutaMax (Gibco), 100 U/mL penicillin 100 μg/mL streptomycin (Gibco), 1 mM sodium pyruvate (Lifetechnologies), and the indicated concentration of compound. After 1 h, this media was removed, cells were washed with ice cold PBS, and lysed with low deoxycholate RIPA buffer (10 mM Tris-Cl, 1% NP-40, 0.5% Na Deoxycholate, 0.1% SDS, 140 mM NaCl, 1 mM EDTA, 500 μM EGTA, 1× Roche Complete protease inhibitors, 1:100 Benzonase, and at pH 8.0). Lysate was centrifuged at maximum speed for 20 m at 4° C. The concentration was measured by Bradford assay. 10 μg of lysate was added to […] ice cold 1 mg/mL BSA with 0.02% Na Azide. 1 mL of ice cold 10% TCA was added, the solutions were mixed and incubated on ice for 0.5 h. These mixtures were vacuum filtered onto GF/C Whatman glass microfiber filters. The filters were washed with 2×5 mL of 10% TCA, then 2×3 mL ethanol. The filters were then dried for a 0.5 h. The filters were placed into scintillation vials with 5 mL of scintillation fluid and read on a scintillation counter.

[2] = tested on: mTORC2 catalyzed phosphorylation of Akt; test: Akt phosphorylation immunoblot (mTORC2) in HEK-293T cells; format: cell-based; settings: HEK-293T cells treated with Cbz-B3A
Protocol: Quantification of western blots was performed with ImageJ. Cells were lysed in RIPA buffer (1% NP-40, 1% NaDeoxycholate, 0.1% SDS, 10 mM TrisCl, 10 mM β-glycerophosphate, 10 mM Na pyrophosphate, 50 mM NaF, 200 μM Na vanadate, 1 mM EDTA, 500 μM EGTA, 1% benzonase, and supplemented with complete (Roche Diagnostics) protease inhibitors).

ubiquilin 4 = target: T1, ubiquilin 4 (Homo sapiens, UniProt Q9NRR5); test: Cellular thermal shift assay (CETSA) in HEK-293T lysate; format: binding; settings: 100 μM Cbz-B3A, lysate incubated 30 min
T1 construct: endogenous in cells; host or cells: HEK-293T lysate
Protocol: CETSA was performed as previously described. Briefly, HEK-293T cells were lysed in DPBS with Roche complete protease inhibitor by 3 quick freeze thaws, centrifuged at 20,000 g for 20 min at 4° C., and the supernatant was adjusted to 4 mg/mL. Lysate was incubated with compound for 30 min and heated to different temperatures in a thermal cycler for 3 min, then cooled to room temperature for 3 min. All samples were then centrifuged at 20,000 g for 20 min at 4° C. and a western blot was run on the supernatant.

T1 sequence (Q9NRR5 whole entry): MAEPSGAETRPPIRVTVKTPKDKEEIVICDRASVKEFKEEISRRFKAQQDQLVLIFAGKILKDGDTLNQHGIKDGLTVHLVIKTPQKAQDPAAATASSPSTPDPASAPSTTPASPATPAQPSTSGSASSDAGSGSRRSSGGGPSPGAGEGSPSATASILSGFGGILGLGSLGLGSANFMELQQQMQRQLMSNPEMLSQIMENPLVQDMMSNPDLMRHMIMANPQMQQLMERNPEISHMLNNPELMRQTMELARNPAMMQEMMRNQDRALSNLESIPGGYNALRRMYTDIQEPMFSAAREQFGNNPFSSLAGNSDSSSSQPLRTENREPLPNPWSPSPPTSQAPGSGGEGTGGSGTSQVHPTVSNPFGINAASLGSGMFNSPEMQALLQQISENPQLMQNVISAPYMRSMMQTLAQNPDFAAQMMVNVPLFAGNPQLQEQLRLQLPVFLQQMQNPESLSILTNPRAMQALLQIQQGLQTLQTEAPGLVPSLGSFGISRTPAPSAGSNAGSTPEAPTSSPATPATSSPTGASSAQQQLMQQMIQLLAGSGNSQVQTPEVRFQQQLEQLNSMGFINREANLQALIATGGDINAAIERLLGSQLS

## CC(C)(C)OC(=O)/N=C(\NCCC[C@H](NC(=O)OC(C)(C)C)C(=O)NCCCCCCNC(=O)OCc1ccccc1)NC(=O)OC(C)(C)C [Cbz-B3A]
Firefly luciferase; 6 μM bortezomib pretreatment 15 min, then 100 μM Cbz-B3A 4 h
  firefly luciferase signal, co-treatment with bortezomib compared to bortezomib alone: decreased
Firefly luciferase; 100 μg/mL cycloheximide pretreatment 15 min, then 100 μM Cbz-B3A 4 h
  luciferase activity, co-treatment with cycloheximide: no further decrease in luciferase activity
Firefly luciferase; HEK-293T cells expressing HA-luciferase, 100 μM, 4 h
  wild type luciferase signal: decreased the wild type luciferase signal
[1]; read-out: EC50 of inhibition of 35S-methionine/cysteine incorporation
  EC50: ~3000 nM
[1]; saturating concentration (Cbz-B3A 10 μM), read-out: maximal inhibition of translation (35S-methionine/cysteine incorporation)
  inhibition at 10 µM: 68%
[2]
  Akt phosphorylation at Ser473: No decrease in Akt phosphorylation
Ubiquilin 4
  melting temperature shift of ubiquilin 4: clear shift to a lower melting temperature
